Experimental data reported in patent US8119647B2, “Fused pyrimidineone compounds as TRPV3 modulators” (Glenmark Pharmaceuticals S.A., priority 2008, dated 2012).
Like-named read-outs stand apart in the source and are kept apart here.

Target: T1, Human TRPV3 (Homo sapiens, UniProt Q8NET8)
T1 construct: expressed in transfected cells; host or cells: CHO cells (G-418 selection)
T1 sequence (Q8NET8 1-790): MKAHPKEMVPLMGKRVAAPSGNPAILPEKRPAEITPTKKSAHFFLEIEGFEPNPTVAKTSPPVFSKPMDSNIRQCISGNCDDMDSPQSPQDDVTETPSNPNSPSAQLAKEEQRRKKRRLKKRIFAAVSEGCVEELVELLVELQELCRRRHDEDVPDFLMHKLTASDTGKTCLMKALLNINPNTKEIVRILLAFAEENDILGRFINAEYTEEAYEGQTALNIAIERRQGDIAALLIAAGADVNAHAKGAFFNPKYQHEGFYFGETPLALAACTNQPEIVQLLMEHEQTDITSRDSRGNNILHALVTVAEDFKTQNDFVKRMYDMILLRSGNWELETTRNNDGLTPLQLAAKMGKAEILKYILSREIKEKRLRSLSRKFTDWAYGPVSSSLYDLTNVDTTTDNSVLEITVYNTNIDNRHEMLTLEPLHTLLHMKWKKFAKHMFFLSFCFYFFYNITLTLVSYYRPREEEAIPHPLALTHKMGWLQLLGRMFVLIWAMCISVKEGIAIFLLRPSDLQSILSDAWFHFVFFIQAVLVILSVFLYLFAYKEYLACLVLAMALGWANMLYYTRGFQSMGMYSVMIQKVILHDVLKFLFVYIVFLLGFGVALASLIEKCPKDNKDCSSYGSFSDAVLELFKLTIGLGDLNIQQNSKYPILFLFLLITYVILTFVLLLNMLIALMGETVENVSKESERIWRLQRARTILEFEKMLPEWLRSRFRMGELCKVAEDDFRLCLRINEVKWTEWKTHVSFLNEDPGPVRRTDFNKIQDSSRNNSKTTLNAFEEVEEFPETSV
Test: Screening for TRPV3 antagonist using the 45Calcium uptake assay (inhibition of 2-APB induced cellular uptake of radioactive calcium)
Format: cell-based
Details: for inhibition at 1 µM: read-out: Percentage inhibition at 1.0 μM; for inhibition at 10 µM: read-out: Percentage inhibition at 10.0 μM; for IC50: class symbols
From the text: The illustrative examples of the present invention are screened for TRPV3 activity according to a modified procedure described in Tóth, A., Kedei, N., Wang, Y. and Blumberg, P. M. Life Sciences (2003), 73, 487-498. The screening of the compounds can be carried out by other methods and procedures known to a person skilled in the art. Such screening methods may be found in (a) Hu, H.-Z. et al. J. Biol. Chem. (2004), 279, 35741-35747; (b) Smith, G. D. et al. Nature (2002), 418, 186-190; (c) Peier, A. M. et al. Science (2002), 296, 2046-2049.
Screening for TRPV3 Antagonist Using the ^45Calcium Uptake Assay:
The inhibition of TRPV3 receptor activation was followed as inhibition of 2-aminoethoxydiphenylborate (2-APB) induced cellular uptake of radioactive calcium. Test compounds were dissolved in dimethyl sulfoxide (DMSO) to prepare 20 mM stock solution and then diluted using plain medium with DMEM/F-12 containing 1.8 mM CaCl2 to get desired concentration. Final concentration of DMSO in the reaction was 0.5% (v/v). Human TRPV3 expressing CHO cells were grown in DMEM/F-12 medium with 10% FBS, 1% penicillin-streptomycin solution, 400 μg/ml of G-418. Cells were seeded 24 h prior to the assay in 96 well plates so as to get ˜50,000 cells per well on the day of experiment. Cells were treated with test compounds for 10 minutes followed by addition of 2-APB at a final concentration of 500 μM and 5 μCi/ml ^45Ca^+2 for 4 minutes. Cells were washed and lysed using buffer containing 1% Triton X-100, 0.1% deoxycholate and 0.1% SDS. Radioactivity in the lysate was measured in Packardt Top count after addition of liquid scintillant. Concentration response curves were plotted as a % of maximal response obtained in the absence of test antagonist. IC50 value was calculated from concentration response curve by nonlinear regression analysis using GraphPad PRISM software.
Percentage inhibition at concentrations of 1.0 μM and 10.0 μM are given in the table along with IC50 (nM) values for selected examples.

[1] = 1.0 μM test compound, human TRPV3 expressing CHO cells, 2-APB 500 μM
[2] = 10.0 μM test compound, human TRPV3 expressing CHO cells, 2-APB 500 μM
[3] = human TRPV3 expressing CHO cells, 2-APB 500 μM

Row | inhibition at 1 µM [1] | inhibition at 10 µM [2] | IC50 [3] | Molecule | further results
1 | 83.8% | 93.7% | 250 to 500 nM | COCCOc1c(/C=C/c2nc3sc4ccccc4n3c(=O)c2-c2ccc(C#N)cc2)cccc1OC [Example 84, 4-(2-{(E)-2-[3-Methoxy-2-(methoxyethoxy)phenyl}-1-ethenyl}-4-oxo-4H-benzo[4,5]-[1,3]thiazolo-[3,2]pyrimidin-3-yl)benzonitrile] | –
2 | 51.5% | 91.5% | – | COc1cccc(/C=C/c2nc3sccn3c(=O)c2-c2ccc(OC(F)(F)F)cc2)c1O [Example 69, 7-[(E)-2-(2-Hydroxy-3-methoxyphenyl)-1-ethenyl]-6-[4-(trifluoromethoxy)phenyl]-5H-[1,3]thiazolo[3,2-a]pyrimidin-5-one] | –
3 | 75.8% | 83.6% | < 250 nM | COc1cccc(/C=C/c2nc3sccn3c(=O)c2-c2ccc(OC(F)(F)F)cc2)c1OC1CCCC1 [Example 68] | –
4 | 58.1% | 82.1% | 250 to 500 nM | COc1cccc(/C=C/c2nc3sccn3c(=O)c2-c2ccc(OC(F)(F)F)cc2)c1OC1CCCCC1 [Example 72, 7-[(E)-2-(2-Cyclohexyloxy-3-methoxyphenyl)-1-ethenyl]-6-[4-(trifluoromethoxy)phenyl]-5H-[1,3]thiazolo[3,2-a]pyrimidin-5-one] | –
5 | 57.9% | – | – | COc1cccc(/C=C/c2nc3sc(Cl)cn3c(=O)c2-c2ccc(N(C)C)cc2)c1OCC(C)(C)C [Example 79, 2-Chloro-6-[4-(dimethylamino)phenyl]-7-[(E)-2-(2-(2,2-dimethylpropoxy)-3-methoxy-phenyl)vinyl]-5H-[1,3]thiazolo[3,2-a]pyrimidin-5-one] | –
6 | 90.8% | 97.9% | < 250 nM | COc1cccc(/C=C/c2nc3sccn3c(=O)c2-c2ccc(OC(F)(F)F)cc2)c1OCCC(F)(F)F [Example 70, 7-[(E)-2-{3-Methoxy-2-(2-trifluoromethylethoxy)phenyl}-1-ethenyl]-6-[4-(trifluoromethoxy)phenyl]-5H-[1,3]thiazolo[3,2-a]pyrimidin-5-one] | –
7 | 92.8% | 95.9% | < 250 nM | COc1cccc(/C=C/c2nc3sccn3c(=O)c2-c2ccc(OC(F)(F)F)cc2)c1OCC1CC1 [Example 58, 7-{(E)-2-[2-(Cyclopropylmethoxy)-3-methoxyphenyl}-1-ethenyl]-6-(4-trifluoromethoxyphenyl)-5H-[1,3]thiazolo[3,2-a]pyrimidin-5-one] | –

Continued, molecule first:

Row | Molecule | inhibition at 1 µM [1] | inhibition at 10 µM [2] | IC50 [3] | further results
8 | CCCCOc1c(/C=C/c2nc3sccn3c(=O)c2-c2ccc(C(F)(F)F)cc2)cccc1OC [Example 26, 7-[(E)-2-(2-Butoxy-3-methoxyphenyl)-1-ethenyl]-6-[4-(trifluoromethyl)phenyl]-5H-[1,3]thiazolo[3,2-a]pyrimidin-5-one] | 56.6% | 84.5% | – | –
9 | COc1cccc(/C=C/c2nc3sccn3c(=O)c2-c2ccc(C#N)cc2)c1OCCCC#N [Example 22, 4-{7-[(E)-2-{2-(3-Cyanopropoxy)-3-(methoxyphenyl)-1-ethenyl]}-5-oxo-5H-[1,3]-thiazolo[3,2-a]pyrimidin-6-yl}benzonitrile] | – | – | – | Percentage inhibition at 1.0 μM [1]: 16.1%; Percentage inhibition at 10.0 μM [2]: 24.5%
10 | COc1cccc(/C=C/c2nc3sc4ccccc4n3c(=O)c2-c2ccc(C(F)(F)F)cc2)c1OCC1CC1 [Example 91, 2-{(E)-2-[(2-Cyclopropylmethoxy)-3-methoxyphenyl]-1-ethenyl}-3-(4-trifluoromethyl-phenyl)-4H-benzo[4,5][1,3]thiazolo-[3,2-a]pyrimidin-4-one] | – | – | – | Percentage inhibition at 1.0 μM [1]: 4.98%; Percentage inhibition at 10.0 μM [2]: 19.85%
11 | CCCCOc1c(/C=C/c2nc3sccn3c(=O)c2-c2ccc(C#N)cc2)cccc1OC [Example 9, 4-{7-[(E)-2-(2-Butoxy-3-methoxyphenyl)-1-ethenyl]-5-oxo-5H-[1,3]thiazolo[3,2-a]pyrimidin-6-yl}benzonitrile] | 71.6% | 91.9% | 500 to 1000 nM | –
12 | COc1cccc(/C=C/c2nc3sccn3c(=O)c2-c2ccc(OCC(F)(F)F)cc2)c1OCC1CC1 [Example 45, 7-[(E)-2-(2-Cyclopropylmethoxy-3-methoxyphenyl)-1-ethenyl]-6-(4-(2,2,2-trifluoroethoxy)phenyl]-5H-[1,3]thiazolo[3,2-a]pyrimidin-5-one] | 30.7% | 77.5% | – | –
13 | COc1cccc(/C=C/c2nc3sccn3c(=O)c2-c2ccc(O)cc2)c1OCC1CC1 [Example 7, 7-[(E)-2-(2-Cyclopropylmethoxy-3-methoxyphenyl)-1-ethenyl]-6-(4-hydroxyphenyl)-5H-[1,3]thiazolo[3,2-a]pyrimidin-5-one] | 12% | 69.3% | – | –
14 | 7-[(E)-2-{(3-Cyanopropoxy)-3-methoxy}phenylvinyl]-6-[4-(trifluoromethoxy)phenyl]-5H-[1,3]thiazolo[3,2-a]pyrimidin-5-one [Example 74] | – | – | – | Percentage inhibition at 1.0 μM [1]: 30.20%; Percentage inhibition at 10.0 μM [2]: 86.42%
15 | COc1cccc(/C=C/c2nc3sccn3c(=O)c2-c2ccc(OCCCC#N)cc2)c1OCC1CC1 [Example 46] | – | – | – | inhibition at 1 µM (CHO): 10%; inhibition at 10 µM (CHO): 52.8%
16 | COc1cccc(/C=C/c2nc3sccn3c(=O)c2-c2ccc(OC(F)(F)F)cc2)c1OCCC(C)C [Example 50, 7-[(E)-2-{2-Isopentyloxy-3-methoxyphenyl}-1-ethenyl]-6-[4-(trifluoromethoxy)phenyl]-5H-[1,3]thiazolo[3,2-a]pyrimidin-5-one] | 81.9% | 89.8% | < 250 nM | –
17 | COCCOc1c(/C=C/c2nc3sccn3c(=O)c2-c2ccc(C(F)(F)F)cc2)cccc1OC [Example 31, {7-[(E)-2-(2-Methoxyethoxy-3-methoxy)phenyl}vinyl]-6-[4-(trifluoromethyl)phenyl]-5H-[1,3]thiazolo[3,2-a]pyrimidin-5-one] | 66.9% | 97.2% | 250 to 500 nM | –
18 | COc1cccc(/C=C/c2nc3sccn3c(=O)c2-c2ccc(OCC3CC3)cc2)c1OCC1CC1 [Example 47, 7-[(E)-2-(2-Cyclopropylmethoxy-3-methoxyphenyl)-1-ethenyl]-6-(4-cyclopropylmethoxyphenyl]-5H-[1,3]thiazolo[3,2-a]pyrimidin-5-one] | 43.7% | 69.2% | – | –
19 | CCOCCOc1cccc(/C=C/c2nc3sccn3c(=O)c2-c2ccc(OC(F)(F)F)cc2)c1OCC1CC1 [Example 62, 7-{(E)-2-[2-(Cyclopropylmethoxy)-3-(2-ethoxyethoxy)phenyl]-1-ethenyl}-6-(4-trifluoro-methoxyphenyl)-5H-[1,3]thiazolo[3,2-a]pyrimidin-5-one] | – | – | – | Percentage inhibition at 1.0 μM [1]: 30.6%; Percentage inhibition at 10.0 μM [2]: 55.9%
20 | COc1cc(/C=C/c2nc3sccn3c(=O)c2-c2ccc(C(F)(F)F)cc2)ccc1OCC1CC1 [Example 38, 7-[(E)-2-(4-Cyclopropylmethoxy-3-methoxyphenyl)-1-ethenyl]-6-[4-(trifluoromethyl)-phenyl]-5H-[1,3]thiazolo[3,2-a]pyrimidin-5-one] | 28.6% | 50.2% | – | –
